Experimental data as given in patent US20120316105A1, “Polymyxin Derivates Useful As Antibacterial Agents” (priority 2011, published 2012).
Like-named read-outs stand apart in the source and are kept apart here. Bridge positions count the residues as written; N and C are the ends. Square brackets hold non-standard residues; d marks the D form. Peptide text beside a SMILES is read from it. * marks the point of attachment. Isonicotinoyl(2-Ph) = O=C(c1ccnc(-c2ccccc2)c1)*; X1 = CC[C@H](C)CCCCC(=O)*; Dab = NCC[C@H](N)C(=O)O; Dap = NC[C@H](N)C(=O)O

Assays:
[1] = system: AB-1649, polymyxin-resistant clinical isolate of Acinetobacter baumannii; format: cell-based
Summary of the method: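 MIC and MBC were measured by CLSI broth dilution methods (M7-A8, M100-S20, M26-A) against a polymyxin-resistant clinical isolate and reported in mg/L. Compounds were tested as trifluoroacetate salts, with one exception tested as the sulfate.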

[2] = system: PA-1646, polymyxin-resistant clinical isolate of Pseudomonas aeruginosa; format: cell-based
Summary of the method: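 Broth dilution MIC per CLSI with 2-fold concentration steps, read visually after overnight incubation as lowest concentration inhibiting growth; duplicates within 2-fold, lower value reported, with QC strains and reference compounds. Compounds tested as trifluoroacetate salts, polymyxin B as sulfate.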

[3] = system: AB-1649, polymyxin-resistant clinical isolate of Acinetobacter baumannii; format: cell-based; remark: listed apart in the source
Summary of the method: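 Broth dilution MIC per CLSI against the polymyxin-resistant A. baumannii isolate, 2-fold dilutions, overnight incubation, visual read of lowest concentration inhibiting growth. Run in duplicate, lower value reported when within 2-fold; MBC per CLSI M26-A guideline.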

[4] = system: AB-3167, clinical isolate of Acinetobacter baumannii; format: cell-based
Summary of the method: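 Broth dilution MIC per CLSI (M7-A8, M100-S20, M26-A for bactericidal), 2-fold dilution series, overnight incubation, visual read of lowest concentration inhibiting growth versus drug-free control. Duplicates run; lower value reported if within 2-fold, otherwise repeated. Compounds tested as trifluoroacetate salts; QC strains and reference compounds required in range.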

[5] = system: Pseudomonas aeruginosa strain PA01; format: cell-based
Summary of the method: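 CLSI broth dilution against P. aeruginosa PA01 with two-fold concentration steps and overnight incubation; MIC is lowest concentration visibly inhibiting growth versus drug-free control, in mg/L. Compounds tested as trifluoroacetate salts, in duplicate, lower value reported if within 2-fold; control organisms and reference compounds included.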

[6] = system: PA-1646, polymyxin-resistant clinical isolate of Pseudomonas aeruginosa; format: cell-based; remark: listed apart in the source
Summary of the method: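 Broth dilution MIC and bactericidal (MBC) testing per CLSI methods (M7-A8, M100-S20, M26-A) against polymyxin-resistant clinical P. aeruginosa isolate PA-1646. Compounds tested as trifluoroacetate salts, one as sulfate salt; values in mg/L.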

[7] = system: EC-1, mouse virulent strain of Escherichia coli; format: cell-based; settings: E. coli EC-1; overnight incubation, lower of duplicate values; trifluoroacetate salt (Example 1 and PMB sulfate)
Summary of the method: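 Compounds were tested mostly as trifluoroacetate salts. Duplicate CLSI broth-dilution MICs were read visually after overnight incubation over 2-fold dilutions, with the lower of duplicates within 2-fold taken. QC organisms and reference drugs were included in each run.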

[8] = system: Human Renal Proximal Tubule Epithelial cells (hRPTEC); test: Cytotoxicity assay (LDH release), hRPTEC; format: cell-based
Summary of the method: (§1)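 hRPTEC grown 72 h in REGM, then exposed to compounds at 100, 67, 44, 30, 20 and 13 micromolar for 24 h at 37° C, 5% CO2. LDH released into supernatant measured; TC50 (micromolar) derived. Compounds tested as trifluoroacetate salts unless otherwise noted.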

[9] = Cytotoxicity assay (LDH release), hRPTEC; format: cell-based, human; settings: human
Summary of the method: as §1

[10] = system: KP-3700, ESBL+ clinical isolate of Klebsiella pneumoniae; test: Minimum inhibitory concentration (MIC, CLSI), KP-3700; format: cell-based; settings: K. pneumoniae KP-3700; overnight incubation, lower of duplicate values; trifluoroacetate salt (Example 1 and PMB sulfate)
Experimental: (§2) Minimum bactericidal concentration (MBC, mg/L), minimum inhibitory concentration (MIC, mg/L), and human renal proximal tubule epithelial cell line cytotoxicity concentration 50% (hRPTEC, TC50, micromolar) for compounds of Formula I are listed in Table 2. The compounds of Formula I were tested as the corresponding trifluoroacetate salt except for Example 1 which was tested as the sulfate salt. For Table 2 below: PMB=polymyxin B as the sulfate salt (Bedford Laboratories, pharmaceutical grade); PMB1=polymyxin B1 as the trifluoroacetate salt; Nona=polymyxin B nonapeptide as the trifluoroacetate salt. PMB1 and Nona were prepared using the solid phase methodology described in the experimental section herein.
(§3) The in vitro antibacterial activity of compounds of Formula I was evaluated by MIC testing according to Clinical and Laboratory Standards Institute (CLSI). See: Clinical and Laboratory Standards Institute. Methods for Dilution Antimicrobial Susceptibility Tests for Bacteria that Grow Aerobically; Approved Standard-Eighth Edition. CLSI document M7-A8 [ISBN 1-56238-689-1]. Clinical and Laboratory Standards Institute, 940 West Valley Road, Suite 1400, Wayne, Pa. 19087-1898 USA, 2006; also Clinical and Laboratory Standards Institute. Performance Standards for Antimicrobial Susceptibility Testing; Twentieth Informational Supplement. CLSI document M100-S20 [ISBN 1-56238-716-2]. Clinical and Laboratory Standards Institute. Methods for Determining Bactericidal Activity of Antimicrobial Agents; Approved Guideline. CLSI document M26-A (ISBN 1-56238-384-1). CLSI, 940 West Valley Road, Suite 1400, Wayne, Pa. 19087-1898 USA, 1999.
(§4) The MIC determination is a standard laboratory method for evaluating the antibacterial activity of a compound. The MIC represents the lowest drug concentration that inhibits visible growth of bacteria following overnight incubation. […] Typically, the drug concentration range is broken down into 2-fold increments (e.g. 0.06 mg/L, 0.12 mg/L, 0.25 mg/L, 0.50 mg/L, 1.0 mg/L, etc.) and the various drug concentrations are all individually incubated overnight with approximately the same number of bacteria. The MIC is then determined by visually inspecting the drug effect at each concentration, and identifying the lowest drug concentration that has inhibited bacterial growth as compared to the drug free control. Typically, bacteria continue to grow at drug concentrations lower than the MIC and don't grow at concentrations at and above the MIC.
(§5) The MIC values described in Table 2 below were derived from assays wherein each test compound was evaluated in duplicate. In cases where the duplicate values varied by 0-2-fold, the lower of the two values was reported below. Generally speaking, if the duplicate values varied by more than 2-fold, the assay was considered non-valid and was repeated until the variation between duplicate runs was ≦2-fold. In line with the CLSI guidelines referred to above, both control organisms and reference compounds were utilized in each MIC assay to provide proper quality control. MIC values generated with these control organisms and reference compounds were required to fall within a defined range for the assay to be considered valid and be included herein. Those skilled in the art will recognize that MIC values can and do vary from experiment to experiment. Generally speaking, it should be recognized that MIC values often vary +/−2-fold from experiment to experiment. While a single MIC is reported for each compound and each microorganism, the reader should not conclude that each compound was only tested once. Several of the compounds were subjected to multiple tests. The data reported in Table 2 is reflective of the compounds relative activity and different MICs may have been generated on these occasions in line with the guidelines described above.
The following bacterial strains were used in these MIC determinations:
KP-3700 is an ESBL+clinical isolate of Klebsiella pneumoniae obtained in 2006; and […]

[11] = system: KP-5016, ESBL+ clinical isolate of Klebsiella pneumoniae (SHV-5); test: Minimum inhibitory concentration (MIC, CLSI), KP-5016; format: cell-based; settings: K. pneumoniae KP-5016; overnight incubation, lower of duplicate values; trifluoroacetate salt (Example 1 and PMB sulfate)
Experimental: as §2, §3, §4, §5
The following bacterial strains were used in these MIC determinations: […]

[12] = AB-1649, polymyxin-resistant clinical isolate of
[13] = PA-1646, polymyxin-resistant clinical isolate of
[14] = A. baumannii AB-3167, overnight incubation, lower of duplicate values, trifluoroacetate salt (Example 1 and PMB sulfate)

Compound	AB-1649 MBC [1, 12] [µg/mL]	PA-1646 MIC [2, 13] [µg/mL]	AB-1649 MIC [3, 12] [µg/mL]	AB-3167 MIC ([4]; AB-3167, clinical isolate of) [µg/mL]	PA01 MIC ([5]; strain) [µg/mL]	PA-1646 MBC [6, 13] [µg/mL]	EC-1 MIC [7] [µg/mL]	reduced human renal cytotoxicity compared with PMB [8]	CC50 at 24 h [9] [µM]	AB-3167 MIC [4, 14] [µg/mL]	AB-1649 MBC ([1]; A. baumannii AB-1649, tested as trifluoroacetate salt (Example 1 and PMB as sulfate salt)) [µg/mL]	PA-1646 MIC ([2]; P. aeruginosa PA-1646, overnight incubation, lower of duplicate values, trifluoroacetate salt (Example 1 and PMB sulfate)) [µg/mL]	AB-1649 MIC ([3]; A. baumannii AB-1649, overnight incubation, lower of duplicate values, trifluoroacetate salt (Example 1 and PMB sulfate)) [µg/mL]	PA01 MIC ([5]; P. aeruginosa PA01, overnight incubation, lower of duplicate values, trifluoroacetate salt (Example 1 and PMB sulfate)) [µg/mL]	KP-3700 MIC [10] [µg/mL]	PA-1646 MBC ([6]; P. aeruginosa PA-1646, tested as trifluoroacetate salt (Example 1 and PMB as sulfate salt)) [µg/mL]	KP-5016 MIC [11] [µg/mL]	CC50 ([8]; hRPTEC, 24 hours treatment, LDH release, Toxic Concentration 50%, read-out: hRPTEC TC50) [µM]
CC(C)C[C@@H]1NC(=O)[C@@H](Cc2ccccc2)NC(=O)[C@H](CCN)NC(=O)[C@@H](NC(=O)[C@H](CN)NC(=O)[C@@H](NC(=O)[C@H](CCN)NC(=O)c2ccnc(-c3ccccc3)c2)[C@@H](C)O)CCNC(=O)[C@H]([C@@H](C)O)NC(=O)[C@H](CCN)NC(=O)[C@H](CCN)NC1=O [Example 1] ({Isonicotinoyl(2-Ph)}-[Dab]T[Dap][Dab][Dab][dF]L[Dab][Dab]T; lactam 4-C)	1	2	1	0.25	0.25	4	0.125	4-5 fold	95	–	–	–	–	–	–	–	–	–
CC[C@H](C)CCCCC(=O)N[C@@H](CCN)C(=O)N[C@H](C(=O)N[C@@H](CN)C(=O)N[C@H]1CCNC(=O)[C@H]([C@@H](C)O)NC(=O)[C@H](CCN)NC(=O)[C@H](CCN)NC(=O)[C@H](CC(C)C)NC(=O)[C@@H](Cc2ccccc2)NC(=O)[C@H](CCN)NC1=O)[C@@H](C)O [Example 43] (X1-[Dab]T[Dap][Dab][Dab][dF]L[Dab][Dab]T; lactam 4-C)	4	1	4	–	0.5	2	0.125	3-4 fold	72	0.125	–	–	–	–	–	–	–	–
polymyxin B [PMB, reference compound]	–	–	–	–	–	–	0.125	–	–	0.25	8	8	8	0.5	0.25	32	32	20
